Reference: patent US10709692B2, “Isoxazolidine derived inhibitors of receptor interacting protein kinase 1 (RIPK1)” (Denali Therapeutics Inc., priority 2015, dated 2020)
Where “and” joins values, the source holds several entries; their conditions need not be identical. Identical values can stand only once.

target: T1, receptor interacting protein kinase 1 (GST-hRIPK1 (8-327)) (Homo sapiens, UniProt Q13546); assay: Fluorescent Polarization Binding (FP Binding) assay; conditions: 10 nM GST-hRIPK1 (8-327), 5 nM fluorescent-labeled ligand, 30 min at RT
T1 construct: GST-hRIPK1 (8-327) enzyme was generated by Proteros GmbH by Baculovirus expression system
T1 sequence (Q13546 8-327): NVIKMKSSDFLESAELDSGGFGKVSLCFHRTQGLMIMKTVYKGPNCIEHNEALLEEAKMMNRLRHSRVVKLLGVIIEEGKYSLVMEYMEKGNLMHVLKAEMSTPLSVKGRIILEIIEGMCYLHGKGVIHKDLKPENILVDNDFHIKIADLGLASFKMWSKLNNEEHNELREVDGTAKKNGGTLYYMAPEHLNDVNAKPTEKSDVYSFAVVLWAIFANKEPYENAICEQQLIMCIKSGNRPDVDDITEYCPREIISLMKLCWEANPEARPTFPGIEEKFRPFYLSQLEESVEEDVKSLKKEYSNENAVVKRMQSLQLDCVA
Summary of the method: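 Displacement of 5 nM fluorescent ligand from 10 nM GST-hRIPK1 (8-327), 30 min at room temperature in pH 7.5 HEPES buffer, 1% DMSO. Fluorescence polarization read (ex 531/em 595 nm); IC50 fitted from percent inhibition and averaged over at least two independent experiments.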

IC50 | Compound
< 1 µM | N#Cc1ccc([C@@H]2CCON2C(=O)C2(C(F)F)CC2)cc1 [Compound 187, 4-[(3S)-2-[1-(difluoromethyl)cyclo-propanecarbonyl]-1,2-oxazolidin-3-yl]benzonitrile]
< 1 µM | CC(C)(C)C(=O)N1OCC[C@H]1c1cc[nH]n1 [Compound 190, 2,2-dimethyl-1-[(3S)-3-(1H-pyrazol-5-yl)-1,2-oxazolidin-2-yl]propan-1-one]
< 1 µM | C[C@@]1(C(=O)N2OCC[C@H]2c2ccc(F)cc2)CCC(=O)N1 [Compound 191, (5S)-5-[(3S)-3-(4-fluorophenyl)-1,2-oxazolidine-2-carbonyl]-5-methylpyrrolidin-2-one]
< 1 µM | CC(C)(C)C(=O)N1OCC[C@H]1c1cc(C#N)ccn1 [Compound 192, 2-[(3S)-2-(2,2-dimethylpropanoyl)-1,2-oxazolidin-3-yl]pyridine-4-carbonitrile]
< 1 µM and 0.005 µM | CC(C)(C(=O)N1OCC[C@H]1c1ccc(F)cc1)C1CC1 [Compound 193, 2-cyclopropyl-1-[(3S)-3-(4-fluorophenyl)-1,2-oxazolidin-2-yl]-2-methylpropan-1-one]
1 to 10 µM | CC(C)(C(=O)N1OCC[C@H]1c1ccc(F)cc1)S(C)(=O)=O [Compound 194, 1-[(3S)-3-(4-fluorophenyl)-1,2-oxazolidin-2-yl]-2-methanesulfonyl-2-methylpropan-1-one]
< 1 µM and 0.01 µM | Cc1ncc([C@@H]2CCON2C(=O)C(C)(C)C(F)F)cc1F [Compound 195, 3,3-difluoro-1-[(3S)-3-(5-fluoro-6-methylpyridin-3-yl)-1,2-oxazolidin-2-yl]-2*2-dimethylpropan-1-one]
< 1 µM and 0.009 µM | Cc1ncc([C@@H]2CCON2C(=O)C(C)(C)CC#N)cc1F [Compound 196, 4-[(3S)-3-(5-fluoro-6-methylpyridin-3-yl)-1,2-oxazolidin-2-yl]-3,3-dimethyl-4-oxobutanenitrile]
< 1 µM and 0.051 µM | Cn1cc([C@@H]2CCON2C(=O)C(C)(C)C(F)F)cn1 [Compound 198, (S)-3,3-difluoro-2,2-dimethyl-1-(3-(1-methyl-1H-pyrazol-4-yl)isoxazolidin-2-yl)propan-1-one]
< 1 µM and 0.009 µM | CC(C)(C(=O)N1OCC[C@H]1c1cncc(C#N)c1)C(F)F [Compound 200, (S)-5-(2-(3,3-difluoro-2,2-dimethylpropanoyl)isoxazolidin-3-yl)nicotinonitrile]
< 1 µM | Cc1ccc([C@@H]2CCON2C(=O)C(C)(C)C(F)F)cn1 [Compound 202, 3,3-difluoro-2,2-dimethyl-1-[(3S)-3-(6-methylpyridin-3-yl)-1,2-oxazolidin-2-yl]propan-1-one]
< 1 µM | CC(C)(C(=O)N1OCC[C@@H]1c1ccc(C#N)s1)C(F)F [Compound 203, 5-[(3R)-2-(3,3-difluoro-2,2-dimethylpropanoyl)-1,2-oxazolidin-3-yl]thiophene-2-carbonitrile]
< 1 µM | CC(C)(C(=O)N1OCC[C@H]1c1ccc(C#N)s1)C(F)F [Compound 204, 5-[(3S)-2-(3,3-difluoro-2,2-dimethylpropanoyl)-1,2-oxazolidin-3-yl]thiophene-2-carbonitrile]
< 1 µM | Cn1cc([C@@H]2CCON2C(=O)C(C)(C)C)cc1C#N [Compound 205, 4-[(3S)-2-(2,2-dimethylpropanoyl)-1,2-oxazolidin-3-yl]-1-methyl-1 h-pyrrole-2-carbonitrile]
< 1 µM | Cc1ncc([C@@H]2CCON2C(=O)C(C)(C)C)cc1C#N [Compound 219]
< 1 µM | Cc1ncc([C@@H]2CCON2C(=O)C(C)(C)C(F)F)cc1C#N [Compound 220, 5-[(3S)-2-(3,3-difluoro-2,2-dimethylpropanoyl)-1,2-oxazolidin-3-yl]-2-methylpyridine-3-carbonitrile]
< 1 µM and 0.07 µM | CC(C)(C(=O)N1OCC[C@H]1c1ccc(C(F)F)nc1)C(F)F [Compound 221, 1-[(3S)-3-[6-(difluoromethyl)pyridin-3-yl]-1,2-oxazolidin-2-yl]-3,3-difluoro-2,2-dimethylpropan-1-one]
< 1 µM | CC(C)(C)C(=O)N1OCC[C@H]1c1cc(Br)cc(C#N)c1 [Compound 222, 3-bromo-5-[(3S)-2-(2,2-dimethylpropanoyl)-1,2-oxazolidin-3-yl]benzonitrile]
< 1 µM | CC(C)(C)C(=O)N1OCC[C@H]1c1ccc([N+](=O)[O-])nc1 [Compound 223, 2,2-dimethyl-1-[(3S)-3-(6-nitropyridin-3-yl)-1,2-oxazolidin-2-yl]propan-1-one]
1 to 10 µM | CC(C)S(=O)(=O)N1OCC[C@H]1c1cncc(C#N)c1 [Compound 225, 5-[(3S)-2-(propane-2-sulfonyl)-1,2-oxazolidin-3-yl]pyridine-3-carbonitrile]
< 1 µM | CC(C)(C(=O)N1OCC[C@H]1c1cc(F)cc(C#N)c1)C(F)F [Compound 226, 3-[(3S)-2-(3,3-difluoro-2,2-dimethylpropanoyl)-1,2-oxazolidin-3-yl]-5-fluorobenzonitrile]
< 1 µM | CC(C)(C(=O)N1OCC[C@H]1c1ccc(C(F)F)c(C#N)c1)C(F)F [Compound 227, 5-[(3S)-2-(3,3-difluoro-2,2-dimethylpropanoyl)-1,2-oxazolidin-3-yl]-2-(difluoromethyl)benzonitrile]
< 1 µM | CC(C)(CC#N)C(=O)N1OCC[C@H]1c1ccc(C(F)F)c(C#N)c1 [Compound 228, 5-[(3S)-2-(3-cyano-2,2-dimethylpropanoyl)-1,2-oxazolidin-3-yl]-2-(difluoromethyl)benzonitrile]
< 1 µM | N#Cc1ccc([C@@H]2CCON2C(=O)C2(C(F)F)CCC2)cc1 [Compound 229, 4-[(3S)-2-[1-(difluoromethyl)cyclo-butanecarbonyl]-1,2-oxazolidin-3-yl]benzonitrile]
< 1 µM | N#Cc1ccc([C@@H]2CCON2C(=O)C23C4C5C6C4C2C6C53)cc1 (stereo partly drawn) [Compound 238, 4-[(3S)-2-(cubane-1-carbonyl)-1,2-oxazolidin-3-yl]benzonitrile]
< 1 µM | CC(C)(C(=O)N1OCC[C@H]1c1cccc(C#N)c1)C(F)F [Compound 239, 3-[(3S)-2-(3,3-difluoro-2,2-dimethylpropanoyl)-1,2-oxazolidin-3-yl]benzonitrile]
0.005 µM | N#Cc1cncc([C@@H]2CCON2C(=O)C(C2CC2)(C2CC2)C2CC2)c1 [Compound 242, 5-[(3S)-2-(tricyclopropylacetyl)-1,2-oxazolidin-3-yl]pyridine-3-carbonitrile]
